Patent US6399579B1, “Compositions comprising icariside I and anhydroicaritin and methods for making the same” (Hauser, Inc., priority 2000, dated 2002)
Where two headings read alike, the source gives them in different places.

Legend:
[1] = target: phosphodiesterase type V (PDE-5) (Homo sapiens, UniProt O76074); assay: PDE-5 inhibition assay; type: biochemical
[2] = Partition of icariside I between ethyl acetate and water; type: physicochemical; conditions: hydrolyzate adjusted to pH 7.0
Experimental: The ethanolic hydrolyzate (25 mL) prepared in Example 1 was mixed with 62.5 mL of de-ionized water and the pH was adjusted to 7.0 using 50% (w/w) sodium hydroxide solution. The resulting mixture was extracted with three 25 mL portions of ethyl acetate and the combined ethyl acetate extracts were back extracted with 150 mL of water.

Row | SMILES | IC50 [1] [nM] | PDE-5 inhibition (in words) [1] | PDE-5 inhibition (in words) ([1]; listed as anhydroicaritin) | IC50 ([1]; read-out: PDE-5 IC50 (converted)) [nM] | partition coefficient between ethyl acetate and water [2] | PDE-5 IC50 [1] [μg/mL]
1 | COc1ccc(-c2oc3c(CC=C(C)C)c(O)cc(O)c3c(=O)c2O)cc1 [Entry 11, anhydroicaritin] | 4070 | significant inhibition of PDE-5 | strong PDE-5 inhibitor |  |  | 
2 | COc1ccc(-c2oc3c(CC=C(C)C)c(O[C@@H]4O[C@H](CO)[C@@H](O)[C@H](O)[C@H]4O)cc(O)c3c(=O)c2O)cc1 [Entry 10, icariside I] |  | strong PDE-5 inhibitor |  | 622 | 16 | 
3 | COc1ccc(-c2oc3c(CCC(C)(C)O)c(O[C@@H]4O[C@H](CO)[C@@H](O)[C@H](O)[C@H]4O)cc(O)c3c(=O)c2O)cc1 [Entry 12, icariside I hydrate] |  | essentially inactive |  |  |  | 21.50
